Laboratory results taken from paper PMC10524218 (Clinical cancer research : an official journal of the …, 2023).

Assays:
[1] = human, in vivo
[2] = Pharmacokinetics in patient blood samples, noncompartmental analysis; conditions: versus patients without; P=0.016; Fig. S3
[3] = test system: γH2AX foci in hair follicles; assay: γH2AX foci formation in hair follicles as marker of DNA double-strand breaks; assay type: in vivo, human; conditions: hair follicles from eight patients
[4] = single-agent sacituzumab govitecan ref 35; cited from earlier work
[5] = test system: SCLC; conditions: monotherapy, SCLC ref 45; cited from earlier work

CCc1c2c(nc3ccc(O[C@@H]4O[C@H](C(=O)O)[C@@H](O)[C@H](O)[C@H]4O)cc13)-c1cc3c(c(=O)n1C2)COC(=O)[C@]3(O)CC [SN-38G]
SN-38G Cmax in patients experiencing fatigue [1]: higher

CCc1c2c(nc3ccc(O)cc13)-c1cc3c(c(=O)n1C2)COC(=O)[C@]3(O)CC [SN-38]
SN-38 AUC in patients experiencing lymphopenia [2]: higher

sacituzumab govitecan
γH2AX foci in hair follicles following sacituzumab govitecan [3]: substantial increase in the number and intensity of γH2AX foci
Grade ≥ 3 neutropenia, fraction of patients [4]: about one-third
Tumor responses [5]: led to tumor responses in SCLC
